Measured values reported in US11166920B2, “Microfluidics device for fabrication of large, uniform, injectable hydrogel microparticles for cell encapsulation” (Auburn University, priority 2017, dated 2021).
“Also recorded” adds a separate entry of the source.

Test system: microsphere CMs
Assay: Multielectrode array: drug response and exogenous pacing
Format: cell-based, human
Settings: day 20 microsphere CMs; isoproterenol 1 μM, then propranolol 1 μM
Experimental: Day 20 and 50 dissociated microsphere CMs were seeded onto a fibronectin coated S2 type MEA200/30-Ti-gr (Multichannel Systems) and cultured for at least 24 h. Adhering microsphere CMs were perfused with Tyrode's solution, composed of 1.8 mM CaCl2), 5 mM glucose, 5 mM HEPES, 1 mM MgCl2, 5.4 mM KCl, 135 mM NaCl, and 0.33 mM NaH2PO4 at pH 7.4 and 37° C. Once stabilized, field potentials of spontaneous contractions were recorded at a sampling frequency of 10 kHz. Drug response of day 20 microsphere CMs was tested by adding the β-adrenergic agonist isoproterenol (1 μM) and antagonist propranolol (1 μM). Day 50 microsphere CMs were exogenously paced from 0.5-6.0 Hz.

| SMILES | Effect on contraction rate |
| --- | --- |
| CC(C)NCC(O)c1ccc(O)c(O)c1 (centres unmarked) [isoproterenol] | increases the frequency of contraction; also recorded: increasing the contraction rate |
| CC(C)NCC(O)COc1cccc2ccccc12 (centres unmarked) [propranolol] | slowed down the rate of contraction; also recorded: reversed the initial increase in contraction rate |
